From article PMC11452715, “Pharmacokinetic and pharmacodynamic evaluation of various vasopressin doses and routes of administration in a neonatal piglet model” (Scientific Reports, 2024)

Columns and labels:
[1] = test system: patients < 18 years of age; set-up: method as in PMID 21926666; details: vasopressin (0.8 IU/kg) after an initial epinephrine dose (n = 10) vs ≥ 2 doses of epinephrine; cited from earlier work
From the text: (§1) Vasopressin, an antidiuretic hormone, might be an alternative to epinephrine, as its efficacy is not impaired during metabolic or respiratory acidosis[3],[4],[9].

[2] = test system: adults with out-of-hospital cardiac arrest; set-up: method as in PMID 14711909; details: adults with asystolic arrest, cited from earlier work; for rate of survival to hospital admission: p = 0.02; for rate of survival to discharge: p = 0.04
From the text: as §1

[3] = test system: pediatric patients; details: 0.4IU/kg/dose IV as rescue therapy; cited from earlier work
From the text: Vasopressin, an antidiuretic hormone, might be an alternative to epinephrine, as its efficacy is not impaired during metabolic or respiratory acidosis[3],[4],[9]. […] Similarly, in a case series of four pediatric patients’ vasopressin at 0.4IU/kg/dose IV administered as rescue thera ...

[4] = test system: neonatal piglets; test: Hemodynamic and cardiac function parameters after vasopressin administration in healthy neonatal piglets; type: in vivo, piglet; details: for ejection fraction / cardiac output: one minute after drug administration, n = 5
From the text: Piglets were instrumented as previously described with modifications[15]–[17]. Following the induction of anaesthesia using isoflurane, piglets were intubated via a tracheostomy, and pressure-controlled ventilation (Sechrist Infant Ventilator Model IV-100; Sechrist Industries, Anaheim, California) was commenced at a respiratory rate of 16–20 breaths/min and pressure of 20/5 cmH2O. Oxygen saturation was kept within 90–100%, glucose level and hydration was maintained with an intravenous infusion of 5% dextrose at 10 mL/kg/hr. During the experiment anaesthesia was maintained with intravenous propofol 5–10 mg/kg/hr and morphine 0.1 mg/kg/hr. Additional doses of propofol (1–2 mg/kg) and morphine (0.05–0.1 mg/kg) were also given as needed. The piglet’s body temperature was maintained within a normal porcine temperature range of 38.5–39.5 °C using an overhead warmer and a heating pad.
A 5-French Argyle® (Klein-Baker Medical Inc. San Antonio, TX) double-lumen catheter was inserted via the right femoral vein for administration of fluids and medications. A 5-French Argyle® single-lumen catheter was inserted above the right renal artery via the femoral artery for continuous arterial blood pressure monitoring in addition to arterial blood gas measurements. The right common carotid artery was also exposed and encircled with a real-time ultrasonic flow probe (2 mm; Transonic Systems Inc., Ithica, NY) to measure cerebral blood flow[15]–[17]. A Millar® catheter (MPVS Ultra1, ADInstruments, Houston, TX) was inserted into the left ventricle via the left common carotid artery for continuous measurement of stroke volume, ejection fraction, end-diastolic and -systolic volumes, left ventricular pressure, and left ventricular contractile function (dp/dtmax, dp/dtmin)^19,20.
Piglets were placed in supine position and allowed to recover from surgical instrumentation until baseline hemodynamic measures were stable (minimum of one hour). Ventilator rate was adjusted to keep the partial arterial CO2 between 35 and 45 mmHg as determined by periodic arterial blood gas analysis. Mean systemic arterial pressure (MAP), systemic systolic arterial pressure, heart rate, and percutaneous oxygen saturation were continuously measured and recorded throughout the experiment with a Hewlett Packard 78833B monitor (Hewlett Packard Co., Palo Alto, CA)[15]–[17].
(§2) Piglets were randomized into four routes and various vasopressin doses: (1) IV vasopressin (0.4IU/kg; n = 5, control), (2) IO vasopressin (n = 5/dose; 0.2IU/kg, 0.4IU/kg, or 0.8IU/kg), (3) ETT vasopressin (n = 5/dose; 4IU/kg, 8IU/kg, or 16IU/kg), (4) IN vasopressin (n = 3/dose; 8IU/kg, 16IU/kg, or 32IU/kg). In all groups, a 3mL saline bolus was administered immediately after the vasopressin dose[20],[21].
(§3) Preliminary tests on a few piglets were conducted to determine the optimal ETT vasopressin doses. […] All piglets, regardless of randomization, underwent insertion of an intraosseous needle during surgical instrumentation to ensure each piglet underwent similar surgical procedures. Arterial blood was collected before vasopressin administration (baseline), 1, 2, 3, 4, 5, and 10 min after vasopressin administration. Following final collection of blood, piglets were euthanized with an intravenous overdose of sodium pentobarbital (100 mg/kg).
Demographics of study piglets were recorded. Transonic flow probes, heart rate, and pressure transducer outputs, and Millar catheter were digitized and recorded with LabChart® programming software (ADInstruments, Houston, TX). Blood samples were collected and centrifuged at 11,000 rpm for five minutes, plasma was then separated and stored at -80 °C. Concentrations of vasopressin were quantified using commercially available ELISA kits (K049-H1, Arbor Assays, Ann Arbor, Michigan, USA). Analysis of pharmacokinetic parameters was performed with the Non-Compartmental Analysis program of the SimBiology Model Analyzer app within MATLAB (MATLAB ver. R2023b, MathWorks, Natick, MA, USA). […]

[5] = 0.8IU/kg IV vasopressin, four hours after resuscitation; cited from earlier work
From the text: This may result from the non-statistically significant lower baseline ejection fraction in 0.4IU/kg IO vasopressin piglets compared to 0.8IU/kg IO vasopressin piglets (Table 1).

[6] = Plasma vasopressin concentrations (ELISA) and non-compartmental pharmacokinetic analysis in neonatal piglets; type: in vivo, piglet; details: for plasma vasopressin concentrations compared to IV vasopressin / plasma concentrations compared to IV vasopressin / Cmax: ELISA; for Tmax compared to IV vasopressin: p < 0.05; for Cmax: pig, plasma, mean (SD), SD
Description: as §2, §3
Demographics of study piglets were recorded. Transonic flow probes, heart rate, and pressure transducer outputs, and Millar catheter were digitized and recorded with LabChart® programming software (ADInstruments, Houston, TX). Blood samples were collected and centrifuged at 11,000 rpm for five minutes, plasma was then separated and stored at -80 °C. Concentrations of vasopressin were quantified using commercially available ELISA kits (K049-H1, Arbor Assays, Ann Arbor, Michigan, USA). Analysis of pharmacokinetic parameters was performed with the Non-Compartmental Analysis program of the SimBiology Model Analyzer app within MATLAB (MATLAB ver. R2023b, MathWorks, Natick, MA, USA).
The data was tested for normality (Shapiro-Wilk and Kolmogorov-Smirnov test) and compared using ANOVA for repeated measures using Tukey post-test for parametric and Dunn’s test for nonparametric comparisons of continuous variables, and Fisher’s exact test for categorical variables. The data are presented as mean (standard deviation - SD) for normally distributed continuous variables and median (interquartile range - IQR) when the distribution was skewed. P-values are 2-sided and p < 0.05 was considered statistically significant. Statistical analyses were performed with SigmaPlot (Systat Software Inc, San Jose, USA).

[7] = 0.4IU/kg IO vasopressin, vs baseline
[8] = 0.4IU/kg IV vasopressin (control)

In the case of `CNC[C@H](O)c1ccc(O)c(O)c1` [epinephrine], the 24 h survival [1] is given as 30%, the “rate of survival to hospital admission” value [2] is given as 20% and the “rate of survival to discharge” value [2] is given as 2%.
For `NC(=O)CC[C@@H]1NC(=O)[C@H](Cc2ccccc2)NC(=O)[C@H](Cc2ccc(O)cc2)NC(=O)[C@@H](N)CSSC[C@@H](C(=O)N2CCC[C@H]2C(=O)N[C@@H](CCCN=C(N)N)C(=O)NCC(N)=O)NC(=O)[C@H](CC(N)=O)NC1=O` [vasopressin], the 24 h survival [1] is listed as 80%, the “achieved ROSC” value [3] is listed as 3/4 and the “survived > 24 h” value [3] is listed as 2/4. For the same molecule, the “survived to hospital discharge” value [3] was 1/4, the “rate of survival to hospital admission” value [2] was 29% and the “rate of survival to discharge” value [2] was 5%. For the same molecule, the “time after drug administration for which cardiac output significantly decreased” value ([4]; 0.2IU/kg IO vasopressin) was “one”, the “carotid blood flow compared to IV vasopressin” value ([4]; 0.2IU/kg IO vasopressin, for four minutes, vs 0.4IU/kg IV) was “significantly higher” and the “time for which MAP significantly increased” value ([4]; 0.2IU/kg IO vasopressin, vs baseline) was “two minutes”. For the same molecule, the “time post-drug administration for which carotid blood flow was decreased” value ([4]; 0.2IU/kg IO vasopressin, comparable to baseline from three to 10 min) was “two”, the “time after drug administration for which cardiac output significantly decreased” value ([4]; 0.4IU/kg IO vasopressin) was “two” and the ejection fraction ([4]; 0.4IU/kg IO vasopressin, p = 0.042 vs IV) was 8.4 (7.7–9.8) %. The “time for which MAP significantly increased” value [4, 7] was “five minutes”, the “time post-drug administration for which carotid blood flow significantly decreased” value [4, 7] was “five” and the cardiac output [4, 8] was 193.1 (170.3–365.8) mL/kg/min. The ejection fraction [4, 8] was 23.3 (22.5–32.6) %, the “time for which MAP significantly increased” value ([4]; 0.4IU/kg IV vasopressin, vs baseline) was “five minutes” and the “MAP and dP/dT minimum, IV vasopressin compared to all IN vasopressin doses” value ([4]; 0.4IU/kg IV vs 8, 16, 32IU/kg IN) was “significantly higher”. For the same molecule, the “time for which MAP significantly increased” value ([4]; 0.8IU/kg IO vasopressin, vs baseline) was “five minutes”, the “dP/dT minimum compared to IV vasopressin” value ([4]; 4IU/kg ETT vasopressin vs 0.4IU/kg IV) was “significantly lower” and the cardiac output ([4]; 4IU/kg ETT vasopressin, p = 0.045 vs IV) was 466 (394–558) mL/kg/min. For the same molecule, the hemodynamic response ([4]; 4IU/kg IN vasopressin, preliminary, doses then increased) was “lack of hemodynamic response”, the “carotid blood flow, IN vasopressin doses compared to IV vasopressin” value ([4]; 8, 16, 32IU/kg IN vs 0.4IU/kg IV) was “higher” and the “dP/dT minimum compared to IV vasopressin” value ([4]; 16IU/kg ETT vasopressin vs 0.4IU/kg IV) was “significantly lower”. The “heart rate, dP/dT maximum or minimum compared to baseline values or IV vasopressin” value ([4]; any IO-administered vasopressin dose (0.2, 0.4, 0.8IU/kg)) was “no significant changes”, the “changes from baseline in heart rate, carotid blood flow, cardiac output, ejection fraction, stroke volume, dP/dT maximum or minimum” value ([4]; any doses within the IN route (8, 16, 32IU/kg)) was “no changes” and the “changes from baseline in heart rate, carotid blood flow, cardiac output, ejection fraction, stroke volume, dP/dT maximum or minimum” value ([4]; any vasopressin dose administered endotracheally (4, 8, 16IU/kg)) was “no changes from baseline”. For the same molecule, the “base excess and lactate concentrations compared to 0.4IU/kg IV vasopressin” value [5] was “significantly higher”, the “plasma vasopressin concentrations compared to IV vasopressin” value ([6]; 4IU/kg ETT vasopressin, two minutes after drug administration) was “significantly lower” and the “plasma vasopressin concentrations compared to IV vasopressin” value ([6]; 8IU/kg ETT vasopressin, three minutes after drug administration) was “significantly lower”. The “plasma concentrations compared to IV vasopressin” value ([6]; 8IU/kg IN vasopressin, 1-10 min) was “significantly lower plasma concentrations at all measured time points”, the “plasma vasopressin concentrations compared to IV vasopressin” value ([6]; 16IU/kg ETT vasopressin, five minutes after drug administration) was “significantly lower” and the “plasma concentrations compared to IV vasopressin” value ([6]; 16IU/kg IN vasopressin, 1-10 min) was “significantly lower plasma concentrations at all measured time points”. For the same molecule, the “plasma concentrations compared to IV vasopressin” value ([6]; 32IU/kg IN vasopressin, 10-minutes after drug administration) was “comparable”, the “Tmax compared to IV vasopressin” value ([6]; 32IU/kg IN vasopressin) was “significantly higher” and the “Tmax compared to IV vasopressin” value ([6]; all ETT vasopressin doses (4, 8, 16IU/kg)) was “significantly higher”. The “plasma vasopressin concentrations compared to IV vasopressin” value ([6]; any IO vasopressin dose (0.2, 0.4, or 0.8IU/kg) vs 0.4IU/kg IV) was “no differences”, the “pharmacokinetic parameters (Cmax, AUC, Tmax, clearance, half-life), IV vs IO” value ([6]; any IO vasopressin dose vs 0.4IU/kg IV) was “comparable” and the Cmax ([6]; endotracheal, 4IU/kg ETT vasopressin, n = 5, p < 0.0001 vs IV) was 0.958 ng/mL. The Cmax ([6]; inhaled or intranasal, 8IU/kg IN vasopressin, n = 3, p < 0.0001 vs IV) was 0.384 ng/mL, the Cmax ([6]; inhaled or intranasal, 16IU/kg IN vasopressin, n = 3, p < 0.0001 vs IV) was 0.399 ng/mL and the Cmax ([6]; 0.4IU/kg IV vasopressin (control), n = 5) was 2.25 ng/mL.
